# Data reported in patent US9394311B2, “Triazolo compounds as PDE10 inhibitors” (Hoffmann-La Roche Inc., priority 2012, dated 2016).
# Biological target: human PDE10A (Homo sapiens (Human), UniProt Q9Y233)
# Test: human PDE10A full length Scintillation Proximity Assay (SPA)
# Format: biochemical
# Settings: PDE10A full length enzyme, 50 nM cGMP / [3H]-cGMP substrate, 20 minutes at room temperature
# Method in brief: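 Full-length human PDE10A with 50 nM cGMP plus 50 nM [3H]-cGMP in 20 mM HEPES pH 7.5, 10 mM MgCl2, 0.05 mg/ml BSA; 20 min at room temperature. Stopped with yttrium silicate SPA beads in zinc sulphate, scintillation counted; IC50 from concentration range.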
# human PDE10A, sequence (Q9Y233 other isoform, or with tags, fused parts or gaps): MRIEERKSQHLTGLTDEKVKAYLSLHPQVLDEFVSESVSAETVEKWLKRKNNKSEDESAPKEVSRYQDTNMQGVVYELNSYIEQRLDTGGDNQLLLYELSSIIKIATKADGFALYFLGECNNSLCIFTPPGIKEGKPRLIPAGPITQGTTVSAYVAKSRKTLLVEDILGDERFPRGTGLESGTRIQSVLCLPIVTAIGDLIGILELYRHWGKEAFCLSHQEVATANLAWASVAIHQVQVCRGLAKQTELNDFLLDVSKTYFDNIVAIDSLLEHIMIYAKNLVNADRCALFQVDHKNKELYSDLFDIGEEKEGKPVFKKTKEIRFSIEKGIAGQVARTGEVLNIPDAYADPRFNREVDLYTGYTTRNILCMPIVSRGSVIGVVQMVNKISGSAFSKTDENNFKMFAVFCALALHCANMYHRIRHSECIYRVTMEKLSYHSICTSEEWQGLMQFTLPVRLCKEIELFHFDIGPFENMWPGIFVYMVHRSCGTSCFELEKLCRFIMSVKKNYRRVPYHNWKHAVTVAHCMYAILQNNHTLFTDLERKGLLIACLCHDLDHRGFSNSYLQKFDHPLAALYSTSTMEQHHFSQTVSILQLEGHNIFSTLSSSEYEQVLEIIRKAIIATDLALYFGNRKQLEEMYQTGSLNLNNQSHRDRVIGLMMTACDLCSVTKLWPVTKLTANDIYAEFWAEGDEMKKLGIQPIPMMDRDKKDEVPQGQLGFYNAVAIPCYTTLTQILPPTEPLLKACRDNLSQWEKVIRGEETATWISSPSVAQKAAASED
row,SMILES,IC50
1,"Cc1cc(C)n2nc(/C=C/c3nc(N(C)C4CC4)nn3C)nc2n1 [Example 30, Cyclopropyl-{5-[2-(5,7-dimethyl-[1,2,4]triazolo[1,5-a]pyrimidin-2-yl)-vinyl]-1-methyl-1H-[1,2,4]triazol-3-yl}-methyl-amine]",57.9 nM
2,"Cc1cncc2nc(CCc3nc(N4CCCC4)nn3C)nn12 [Example 57, 5-Methyl-2-(2-(1-methyl-3-(pyrrolidin-1-yl)-1H-1,2,4-triazol-5-yl)ethyl)-[1,2,4]triazolo[1,5-a]pyrazine]",251 nM
